Assay results reported in PubChem BioAssay (NCI).
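Each compound was tested at five concentrations against cells in 96-well plates for 48 hours. Here, GI50 denotes the concentration required for 50% inhibition of growth. TGI: total growth inhibition.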

Tests used:
Assay in all cases: growth of human tumour cells (NCI), 48 h
786-0 renal = tested on: 786-0 renal
CAKI-1 renal = tested on: CAKI-1 renal
HCT-15 colon = tested on: HCT-15 colon
HL-60(TB) leukemia = tested on: HL-60(TB) leukemia
RPMI-8226 leukemia = tested on: RPMI-8226 leukemia
SF-268 CNS = tested on: SF-268 CNS
SK-MEL-28 melanoma = tested on: SK-MEL-28 melanoma
SK-OV-3 ovarian = tested on: SK-OV-3 ovarian
U251 CNS = tested on: U251 CNS
UACC-62 melanoma = tested on: UACC-62 melanoma

O=C1c2cc3c(cc2CC12Cc1ccc4c(c1C2=O)CCCC4)CCCC3 (stereo not drawn)
TGI (786-0 renal): 46.1 µM
TGI (CAKI-1 renal): > 100 µM
TGI (HCT-15 colon): > 100 µM
TGI (HL-60(TB) leukemia): > 100 µM
TGI (RPMI-8226 leukemia): > 100 µM
TGI (SF-268 CNS): > 100 µM
TGI (SK-MEL-28 melanoma): > 100 µM
TGI (SK-OV-3 ovarian): 87.4 µM
TGI (U251 CNS): 60.5 µM

COc1cc2c(cc1OC)C(Cl)C(c1ccc(Cl)c(Cl)c1)=C2Cl (stereo not drawn)
TGI (CAKI-1 renal): 25.1 µM
TGI (HCT-15 colon): 12.6 µM
TGI (HL-60(TB) leukemia): 9.47 µM
TGI (RPMI-8226 leukemia): 12.8 µM
TGI (SK-MEL-28 melanoma): 32.7 µM
TGI (SK-OV-3 ovarian): 40.5 µM
TGI (U251 CNS): 16.4 µM
TGI (UACC-62 melanoma): 18.7 µM

COc1ccc(NC(C)=O)cc1N1C(=O)/C(=C\c2cc(OC)c(OC)c(OC)c2)SC1c1ccccc1 (stereo not drawn)
TGI (786-0 renal): > 100 µM
TGI (CAKI-1 renal): 60.2 µM
TGI (HCT-15 colon): > 100 µM
TGI (HL-60(TB) leukemia): 41 µM
TGI (RPMI-8226 leukemia): > 100 µM
TGI (SK-MEL-28 melanoma): > 100 µM
TGI (SK-OV-3 ovarian): > 100 µM
TGI (U251 CNS): > 100 µM
TGI (UACC-62 melanoma): > 100 µM

CC1(C)CC(C)(C)C1=NNC(N)=O
TGI (786-0 renal): > 100 µM
TGI (CAKI-1 renal): > 100 µM
TGI (HCT-15 colon): > 100 µM
TGI (HL-60(TB) leukemia): > 100 µM
TGI (SF-268 CNS): > 100 µM
TGI (SK-MEL-28 melanoma): > 100 µM
TGI (SK-OV-3 ovarian): > 100 µM
TGI (U251 CNS): > 100 µM
TGI (UACC-62 melanoma): > 100 µM

OC(CCNCc1ccccc1)c1ccc2ccccc2c1 (stereo not drawn)
TGI (786-0 renal): 35.9 µM
TGI (CAKI-1 renal): 42.6 µM
TGI (HCT-15 colon): 38.8 µM
TGI (HL-60(TB) leukemia): 43.2 µM
TGI (RPMI-8226 leukemia): 73.3 µM
TGI (SF-268 CNS): 48 µM
TGI (SK-MEL-28 melanoma): 34 µM
TGI (U251 CNS): 30.6 µM
TGI (UACC-62 melanoma): 35.8 µM

O=C(Cn1c(C(=O)/C=C/c2cccs2)nc2ccccc21)c1ccc(Cl)cc1
TGI (786-0 renal): 32.8 µM
TGI (HCT-15 colon): 83 µM
TGI (HL-60(TB) leukemia): 61.3 µM
TGI (RPMI-8226 leukemia): 29.3 µM
TGI (SF-268 CNS): 66.5 µM
TGI (SK-MEL-28 melanoma): > 100 µM
TGI (SK-OV-3 ovarian): > 100 µM
TGI (U251 CNS): 30.3 µM
TGI (UACC-62 melanoma): > 100 µM

COc1ccc(C)cc1Nc1nnc(-c2ccccc2N)s1
TGI (786-0 renal): > 100 µM
TGI (CAKI-1 renal): > 100 µM
TGI (HCT-15 colon): > 100 µM
TGI (HL-60(TB) leukemia): 73 µM
TGI (RPMI-8226 leukemia): 53.4 µM
TGI (SF-268 CNS): > 100 µM
TGI (SK-MEL-28 melanoma): > 100 µM
TGI (SK-OV-3 ovarian): > 100 µM
TGI (UACC-62 melanoma): > 100 µM

C/C=C(/C)C(=O)O[C@H](C[C@@H](C)[C@H]1CC(c2ccoc2)OC1=O)[C@@]1(C)C(=O)CCC2O[C@]21C (stereo partly drawn)
TGI (786-0 renal): > 100 µM
TGI (CAKI-1 renal): > 100 µM
TGI (HCT-15 colon): > 100 µM
TGI (HL-60(TB) leukemia): > 100 µM
TGI (RPMI-8226 leukemia): > 100 µM
TGI (SK-MEL-28 melanoma): > 100 µM
TGI (SK-OV-3 ovarian): > 100 µM
TGI (U251 CNS): > 100 µM
TGI (UACC-62 melanoma): > 100 µM

COc1ccc(-c2cc(-c3cc4cc(Br)ccc4nc3Cl)c(C#N)c(N)n2)cc1
TGI (786-0 renal): > 12.5 µM
TGI (CAKI-1 renal): > 12.5 µM
TGI (HCT-15 colon): > 12.5 µM
TGI (HL-60(TB) leukemia): > 12.5 µM
TGI (RPMI-8226 leukemia): > 12.5 µM
TGI (SF-268 CNS): > 12.5 µM
TGI (SK-MEL-28 melanoma): > 12.5 µM
TGI (SK-OV-3 ovarian): > 12.5 µM

CCOC(=O)C(NC(=O)CC)(Nc1cc(C)on1)C(F)(F)F (stereo not drawn)
TGI (786-0 renal): > 100 µM
TGI (HCT-15 colon): > 100 µM
TGI (HL-60(TB) leukemia): > 100 µM
TGI (RPMI-8226 leukemia): > 100 µM
TGI (SF-268 CNS): > 100 µM
TGI (SK-MEL-28 melanoma): > 100 µM
TGI (U251 CNS): > 100 µM

COc1ccccc1NC(=O)CC(=O)N1N=C(C)C(N=Nc2ccc(C(=O)O)cc2)C1=O (stereo not drawn)
TGI (786-0 renal): > 100 µM
TGI (CAKI-1 renal): > 100 µM
TGI (HCT-15 colon): > 100 µM
TGI (HL-60(TB) leukemia): > 100 µM
TGI (RPMI-8226 leukemia): > 100 µM
TGI (SF-268 CNS): > 100 µM
TGI (SK-MEL-28 melanoma): > 100 µM
TGI (U251 CNS): > 100 µM
TGI (UACC-62 melanoma): > 100 µM

NNC(=O)Cn1c2ccc(Br)cc2c2nc3ccccc3nc21
TGI (786-0 renal): > 100 µM
TGI (CAKI-1 renal): > 100 µM
TGI (RPMI-8226 leukemia): > 100 µM
TGI (SF-268 CNS): > 100 µM
TGI (SK-MEL-28 melanoma): > 100 µM
TGI (SK-OV-3 ovarian): > 100 µM
TGI (U251 CNS): > 100 µM
TGI (UACC-62 melanoma): > 100 µM

Cc1ccc2c(c1C)C(=O)/C(=C/c1ccccc1C(=O)O)C2
TGI (786-0 renal): > 100 µM
TGI (CAKI-1 renal): > 100 µM
TGI (HCT-15 colon): > 100 µM
TGI (HL-60(TB) leukemia): > 100 µM
TGI (RPMI-8226 leukemia): > 100 µM
TGI (SF-268 CNS): > 100 µM
TGI (SK-MEL-28 melanoma): > 100 µM
TGI (U251 CNS): > 100 µM
TGI (UACC-62 melanoma): > 100 µM

C/C(Nc1ccc(F)cc1)=C1/CCOC1=O
TGI (786-0 renal): > 100 µM
TGI (HCT-15 colon): > 100 µM
TGI (HL-60(TB) leukemia): > 100 µM
TGI (RPMI-8226 leukemia): > 100 µM
TGI (SF-268 CNS): > 100 µM
TGI (SK-MEL-28 melanoma): > 100 µM
TGI (U251 CNS): > 100 µM
TGI (UACC-62 melanoma): > 100 µM

Cc1cc(N2CCCC2)nc(N(CCNc2ccnc3cc(Cl)ccc23)Cc2ccco2)n1
GI50 (HCT-15 colon): 3.19 µM
TGI (HCT-15 colon): > 100 µM
GI50 (RPMI-8226 leukemia): 2.02 µM
TGI (RPMI-8226 leukemia): 4.5 µM
GI50 (SF-268 CNS): 11.7 µM
TGI (SF-268 CNS): > 100 µM
GI50 (SK-MEL-28 melanoma): 3.94 µM
TGI (SK-MEL-28 melanoma): > 100 µM
GI50 (SK-OV-3 ovarian): 7.16 µM
TGI (SK-OV-3 ovarian): 38.8 µM
GI50 (U251 CNS): 3.15 µM
TGI (U251 CNS): 21.4 µM
GI50 (UACC-62 melanoma): 4.11 µM
TGI (UACC-62 melanoma): 78.2 µM

CCOP(=O)(OCC)C1CC(n2cc(C)c(=O)[nH]c2=O)OC1CO (stereo not drawn)
TGI (786-0 renal): > 100 µM
TGI (CAKI-1 renal): > 100 µM
TGI (HCT-15 colon): > 100 µM
TGI (HL-60(TB) leukemia): > 100 µM
TGI (RPMI-8226 leukemia): > 100 µM
TGI (SF-268 CNS): > 100 µM
TGI (SK-MEL-28 melanoma): > 100 µM
TGI (U251 CNS): > 100 µM
TGI (UACC-62 melanoma): > 100 µM

COc1cc(C(C)c2cc3c(cc2OCCO)OCO3)cc(OC)c1OC (stereo not drawn)
TGI (CAKI-1 renal): > 100 µM
TGI (HCT-15 colon): > 100 µM
TGI (HL-60(TB) leukemia): 2.02 µM
TGI (RPMI-8226 leukemia): > 100 µM
TGI (SF-268 CNS): > 100 µM
TGI (U251 CNS): > 100 µM
TGI (UACC-62 melanoma): > 100 µM

CCCCCC(C)SC1(C(=O)OC)CC(OC(C)=O)C(NC(C)=O)C([C@H](OC(C)=O)[C@@H](COC(C)=O)OC(C)=O)O1 (stereo partly drawn)
TGI (786-0 renal): > 100 µM
TGI (CAKI-1 renal): > 100 µM
TGI (HCT-15 colon): > 100 µM
TGI (HL-60(TB) leukemia): > 100 µM
TGI (RPMI-8226 leukemia): > 100 µM
TGI (SF-268 CNS): > 100 µM
TGI (SK-MEL-28 melanoma): > 100 µM
TGI (U251 CNS): > 100 µM

CC1(C)C2C=CC1(C)C1(CC2)OCCO1 (stereo not drawn)
TGI (786-0 renal): > 100 µM
TGI (HCT-15 colon): > 100 µM
TGI (HL-60(TB) leukemia): > 100 µM
TGI (RPMI-8226 leukemia): > 100 µM
TGI (SF-268 CNS): > 100 µM
TGI (SK-MEL-28 melanoma): > 100 µM
TGI (SK-OV-3 ovarian): > 100 µM
TGI (U251 CNS): > 100 µM
TGI (UACC-62 melanoma): > 100 µM

C[C@@H]1CC[C@H]2C(C(O)CCCCC(O)C3=C(C(F)(F)F)O[C@@H]4O[C@@]5(C)CC[C@H]6[C@H](C)CC[C@@H]3[C@@]46OO5)=C(C(F)(F)F)O[C@@H]3O[C@@]4(C)CC[C@@H]1[C@]32OO4 (stereo partly drawn)
GI50 (CAKI-1 renal): 5.72 µM
TGI (CAKI-1 renal): > 100 µM
GI50 (HCT-15 colon): 9.79 µM
TGI (HCT-15 colon): > 100 µM
GI50 (HL-60(TB) leukemia): 6.44 µM
TGI (HL-60(TB) leukemia): > 100 µM
GI50 (RPMI-8226 leukemia): 5.06 µM
TGI (RPMI-8226 leukemia): > 100 µM
GI50 (SF-268 CNS): 19.5 µM
TGI (SF-268 CNS): > 100 µM
GI50 (SK-MEL-28 melanoma): 86.7 µM
TGI (SK-MEL-28 melanoma): > 100 µM
GI50 (SK-OV-3 ovarian): > 100 µM
TGI (SK-OV-3 ovarian): > 100 µM
GI50 (U251 CNS): 19.8 µM
TGI (U251 CNS): > 100 µM
GI50 (UACC-62 melanoma): 8.13 µM
TGI (UACC-62 melanoma): > 100 µM

COc1ccc(C(=O)Cc2ccc(Br)cc2)cc1OC
TGI (CAKI-1 renal): > 100 µM
TGI (HCT-15 colon): > 100 µM
TGI (HL-60(TB) leukemia): > 100 µM
TGI (RPMI-8226 leukemia): > 100 µM
TGI (SF-268 CNS): > 100 µM
TGI (SK-OV-3 ovarian): > 100 µM
TGI (U251 CNS): > 100 µM
TGI (UACC-62 melanoma): > 100 µM
